Source: patent publication US8486931B2, “Substituted oxindole compounds” (Abbott GmbH & Co. KG, priority 2007, dated 2013)
Where a name gives a salt, the structure may show the parent alone.

These compounds were tested against T1, human vasopressin V1b receptor (Homo sapiens, UniProt P47901) (assay: Vasopressin V1b receptor binding assay). Conditions: membranes from CHO-K1 cells with stably expressed human V1b receptors, 1.5 nM 3H-AVP displacement; with more than one stereogenic center: the diastereomer with stronger affinity.
T1 construct: expressed in transfected cells; host or cells: CHO-K1 (cell line hV1b-3H2_CHO), membrane preparation
T1 sequence (P47901 1-424): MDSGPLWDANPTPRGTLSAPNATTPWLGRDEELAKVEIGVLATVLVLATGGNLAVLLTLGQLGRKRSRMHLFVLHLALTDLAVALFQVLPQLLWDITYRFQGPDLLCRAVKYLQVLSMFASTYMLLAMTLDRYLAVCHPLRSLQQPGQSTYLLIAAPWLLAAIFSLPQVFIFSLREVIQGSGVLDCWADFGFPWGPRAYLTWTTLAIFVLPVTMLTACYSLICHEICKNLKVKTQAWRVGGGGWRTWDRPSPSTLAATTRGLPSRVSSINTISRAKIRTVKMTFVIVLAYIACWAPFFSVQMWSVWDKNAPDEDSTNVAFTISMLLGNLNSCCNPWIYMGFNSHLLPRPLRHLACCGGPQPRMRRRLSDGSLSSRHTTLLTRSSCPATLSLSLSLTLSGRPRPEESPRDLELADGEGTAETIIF
How it was run: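 Membranes bearing human V1b receptor incubated 60 min at room temperature in 50 mM Tris, 10 mM MgCl2, 0.1% BSA, pH 7.4, 2% DMSO, triplicate.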

Ki [nM]	Compound
10 to 50	CCOc1ccc(OC)cc1C1(N2CCN(C3CCNCC3)CC2)C(=O)N(S(=O)(=O)c2ccc(OC)c3cccnc23)c2ccc(C#N)cc21 (racemic) [Example 69, (±)-5-Cyano-3-(2-ethoxy-5-methoxyphenyl)-1-(5-methoxyquinoline-8-sulfonyl)-3-(4-piperidin-4-ylpiperazin-1-yl)-2,3-dihydro-1H-indol-2-one hydrochloride]
< 10	CCOc1ccccc1C1(N2CCN(c3ccnc(C)c3)CC2)C(=O)N(S(=O)(=O)c2ccc(OC)cn2)c2ccc(C#N)cc21 (racemic) [Example 79, (±)-5-Cyano-3-(2-ethoxyphenyl)-1-(5-methoxypyridine-2-sulfonyl)-3-[4-(2-methyl-pyridin-4-yl)piperazin-1-yl]-2,3-dihydro-1H-indol-2-one]
< 10	(±)-5-Cyano-3-(2-ethoxy-5-methoxyphenyl)-3-[4-(2-ethylpyridin-4-yl)piperazin-1-yl]-1-(quinoline-8-sulfonyl)-2,3-dihydro-1H-indol-2-one [Example 58]
10 to 50	CCOc1ccc(OC)cc1C1(N2CCN(c3ccnc(C)c3)CC2)C(=O)N(S(=O)(=O)c2ccc(Cl)c3cccnc23)c2ccc(C#N)cc21 (racemic) [Example 53, (±)-5-Cyano-1-(5-chloroquinoline-8-sulfonyl)-3-(2-ethoxy-5-methoxyphenyl)-3-[4-(2-methylpyridin-4-yl)piperazin-1-yl]-2,3-dihydro-1H-indol-2-one]
10 to 50	COc1ccc(OC(C)C)c(C2(N3CCN(c4ccncc4)CC3)C(=O)N(S(=O)(=O)c3ccc(C)cn3)c3ccc(C#N)cc32)c1 (racemic) [Example 21, (±)-5-Cyano-3-(2-isopropoxy-5-methoxyphenyl)-1-(5-methylpyridine-2-sulfonyl)-3-(4-pyridin-4-ylpiperazin-1-yl)-2,3-dihydro-1H-indol-2-one]
< 10	CCOc1ccc(OC)cc1C1(N2CCCN(c3ccnc(C(C)C)c3)CC2)C(=O)N(S(=O)(=O)c2ccc(OC)cn2)c2ccc(C#N)cc21 (racemic) [Example 154, (±)-5-Cyano-3-(2-ethoxy-5-methoxy-phenyl)-3-[4-(2-isopropyl-pyridin-4-yl)-[1,4]diazepan-1-yl]-1-(5-methoxy-pyridine-2-sulfonyl)-2,3-dihydro-1H-indol-2-one]
10 to 50	CCOc1ccccc1C1(N2CCN(c3ccncc3)CC2)C(=O)N(S(=O)(=O)c2ccccn2)c2ccc(C#N)cc21 (racemic) [Example 14, (±)-5-Cyano-3-(2-ethoxyphenyl)-1-(pyridine-2-sulfonyl)-3-(4-pyridin-4-yl-piperazin-1-yl)-2,3-dihydro-1H-indol-2-one]
< 10	CCOc1ccc(OC)cc1C1(N2CCN(C3CCNCC3)CC2)C(=O)N(S(=O)(=O)c2ccc(OC)cn2)c2ccc(C#N)cc21 (single isomer, unassigned; (+)) [Example 140, (+)-5-Cyano-3-(2-ethoxy-5-methoxy-phenyl)-1-(5-methoxy-pyridine-2-sulfonyl)-3-(4-piperidin-4-yl-piperazin-1-yl)-2,3-dihydro-1H-indol-2-one]
< 10	CCOc1c(OC)cccc1C1(N2CCN(c3ccnc(C)c3)CC2)C(=O)N(S(=O)(=O)c2ccc(OC)cn2)c2ccc(C#N)cc21 (racemic) [Example 179, (±)-5-Cyano-3-(2-ethoxy-3-methoxy-phenyl)-1-(5-methoxy-pyridine-2-sulfonyl)-3-[4-(2-methyl-pyridin-4-yl)-piperazin-1-yl]-2,3-dihydro-1H-indol-2-one]
< 10	CCOc1ccccc1C1(N2CCN(c3ccncc3)CC2)C(=O)N(S(=O)(=O)c2cccc3c(C)ccnc23)c2ccc(C#N)cc21 (racemic) [Example 16, (±)-5-Cyano-3-(2-ethoxyphenyl)-1-(4-methylquinoline-8-sulfonyl)-3-(4-pyridin-4-yl-piperazin-1-yl)-2,3-dihydro-1H-indol-2-one]
10 to 50	CCOc1cc(F)ccc1C1(N2CCCN(c3ccncc3)CC2)C(=O)N(S(=O)(=O)c2ccc(OC)cn2)c2ccc(C#N)cc21 (racemic) [Example 147, (±)-5-Cyano-3-(2-ethoxy-4-fluoro-phenyl)-1-(5-methoxy-pyridine-2-sulfonyl)-3-(4-pyridin-4-yl-[1,4]diazepan-1-yl)-2,3-dihydro-1H-indol-2-one]
10 to 50	CCOc1nc(Cl)ccc1C1(N2CCN(c3ccncc3)CC2)C(=O)N(S(=O)(=O)c2cccc3c(C)ccnc23)c2ccc(C#N)cc21 (racemic) [Example 30, (±)-5-Cyano-3-(6-chloro-2-ethoxypyridin-3-yl)-1-(4-methylquinoline-8-sulfonyl)-3-(4-pyridin-4-ylpiperazin-1-yl)-2,3-dihydro-1H-indol-2-one]
< 10	CCOc1nc(Cl)ccc1C1(N2CCN(c3ccnc(C)c3)CC2)C(=O)N(S(=O)(=O)c2ccc(OC)cn2)c2ccc(C#N)cc21 (racemic) [Example 34, (±)-5-Cyano-3-(6-chloro-2-ethoxypyridin-3-yl)-1-(5-methoxypyridine-2-sulfonyl)-3-[4-(2-methylpyridin-4-yl)piperazin-1-yl]-2,3-dihydro-1H-indol-2-one]
10 to 50	CCOc1nc(Cl)ccc1C1(N2CCN(c3ccnc(C)c3)CC2)C(=O)N(S(=O)(=O)c2cccc3cccnc23)c2ccc(C#N)cc21 (racemic) [Example 27, (±)-5-Cyano-3-(6-chloro-2-ethoxypyridin-3-yl)-3-[4-(2-methylpyridin-4-yl)-piperazin-1-yl]-1-(quinoline-8-sulfonyl)-2,3-dihydro-1H-indol-2-one]
10 to 50	COc1ncccc1C1(N2CCN(c3ccncc3)CC2)C(=O)N(S(=O)(=O)c2cccc3cccnc23)c2ccc(Cl)cc21 (racemic) [Example 42, (±)-5-Chloro-3-(2-methoxypyridin-3-yl)-3-(4-pyridin-4-ylpiperazin-1-yl)-1-(quinoline-8-sulfonyl)-1,3-dihydroindol-2-one]
10 to 50	(±)-5-Cyano-3-(6-chloro-2-ethoxypyridin-3-yl)-1-(2,4-dimethoxybenzenesulfonyl)-3-[4-(2-methylpyridin-4-yl)piperazin-1-yl]-2,3-dihydro-1H-indol-2-one [Example 28]
10 to 50	CCOc1ccc(OC)cc1C1(N2CC3CN(c4ccncc4)CC3C2)C(=O)N(S(=O)(=O)c2ccc(OC)c3cccnc23)c2ccc(C#N)cc21 (racemic) [Example 74, (±)-5-Cyano-3-(2-ethoxy-5-methoxyphenyl)-1-(5-methoxyquinoline-8-sulfonyl)-3-(5-pyridin-4-ylhexahydropyrrolo[3,4-c]pyrrol-2-yl)-2,3-dihydro-1H-indol-2-one]
10 to 50	CCOc1ccccc1C1(N2CCN(c3ccncc3)CC2)C(=O)N(S(=O)(=O)c2ccc(C)cn2)c2ccc(C#N)cc21 (racemic) [Example 11, (±)-5-Cyano-3-(2-ethoxyphenyl)-1-(5-methylpyridine-2-sulfonyl)-3-(4-pyridin-4-yl-piperazin-1-yl)-2,3-dihydro-1H-indol-2-one]
< 10	CCOc1ccc(OC)cc1C1(N2CCN(c3ccnc(C)c3)CC2)C(=O)N(S(=O)(=O)c2cccc3cccnc23)c2ccc(C#N)cc21 (racemic) [Example 54, (±)-5-Cyano-3-(2-ethoxy-5-methoxyphenyl)-3-[4-(2-methylpyridin-4-yl)piperazin-1-yl]-1-(quinoline-8-sulfonyl)-2,3-dihydro-1H-indol-2-one]
10 to 50	CCOc1ccc(OC)cc1C1(N2CCC(N3CCNCC3)CC2)C(=O)N(S(=O)(=O)c2ccc(OC)cn2)c2ccc(C#N)cc21 (single isomer, unassigned; (+)) [Example 156, (+)-5-Cyano-3-(2-ethoxy-5-methoxy-phenyl)-1-(5-methoxy-pyridine-2-sulfonyl)-3-(4-piperazin-1-yl-piperidin-1-yl)-2,3-dihydro-1H-indol-2-one]
10 to 50	CCOc1ccccc1C1(N2CCN(c3ccncc3C)CC2)C(=O)N(S(=O)(=O)c2cccc3cccnc23)c2ccc(C#N)cc21 (racemic) [Example 15, (±)-5-Cyano-3-(2-ethoxyphenyl)-3-[4-(3-methylpyridin-4-yl)-piperazin-1-yl]-1-(quinoline-8-sulfonyl)-2,3-dihydro-1H-indol-2-one]
10 to 50	CCOc1ccccc1C1(N2CCN(C3CCN(C)CC3)CC2)C(=O)N(S(=O)(=O)c2ccc(OC)cn2)c2ccc(C#N)cc21 (racemic) [Example 83, (±)-5-Cyano-3-(2-ethoxyphenyl)-1-(5-methoxypyridine-2-sulfonyl)-3-[4-(1-methyl-piperidin-4-yl)piperazin-1-yl]-2,3-dihydro-1H-indol-2-one]
< 10	CCOc1nc(Cl)ccc1C1(N2CCCN(c3ccnc(C)c3)CC2)C(=O)N(S(=O)(=O)c2ccc(OC)cn2)c2ccc(C#N)cc21 (racemic) [Example 177, (±)-5-Cyano-3-(6-chloro-2-ethoxy-pyridin-3-yl)-1-(5-methoxy-pyridine-2-sulfonyl)-3-[4-(2-methyl-pyridin-4-yl)-[1,4]diazepan-1-yl]-2,3-dihydro-1H-indol-2-one]
10 to 50	COc1nc(Cl)ccc1C1(N2CCN(c3ccncc3)CC2)C(=O)N(S(=O)(=O)c2cccc3cccnc23)c2ccc(C#N)cc21 (racemic) [Example 19, (±)-5-Cyano-3-(6-chloro-2-methoxypyridin-3-yl)-3-(4-pyridin-4-ylpiperazin-1-yl)-1-(quinoline-8-sulfonyl)-2,3-dihydro-1H-indol-2-one]
